Results: PubChem BioAssay (NCI)
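Exposure lasted 48 hours, with cells grown in 96-well plates and compounds tested at five concentrations. TGI marks complete inhibition of growth.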

Columns and labels:
Test in all cases: NCI tumour cell line growth inhibition, 48 h
[1] = tested on: UO-31 renal
[2] = tested on: SNB-19 CNS
[3] = tested on: PC-3 prostate
[4] = tested on: UACC-257 melanoma
[5] = tested on: SNB-75 CNS
[6] = tested on: MDA-MB-231 breast
[7] = tested on: U251 CNS
[8] = tested on: A549 NSCLC
[9] = tested on: RPMI-8226 leukemia
[10] = tested on: SK-MEL-28 melanoma

Row | SMILES | TGI [1] | TGI [2] | TGI [3] | TGI [4] | TGI [5] | TGI [6] | TGI [7] | TGI [8] | TGI [9] | TGI [10]
1 | Cc1[nH]c(=O)c2oc3cc4ccccc4cc3c2c1C(=O)O | > 10 µM | > 10 µM | > 10 µM | > 10 µM | > 10 µM | > 10 µM | > 10 µM | > 10 µM | – | –
2 | N#CCc1nc(-c2cc3ccccc3oc2=O)cs1 | > 100 µM | > 100 µM | > 100 µM | > 100 µM | 99.7 µM | > 100 µM | > 100 µM | > 100 µM | > 100 µM | > 100 µM
3 | Cc1nc2ccc(S(=O)(=O)O)cc2c(=O)n1-c1ccc(C(=O)NN2C(=O)C(Cl)C2c2cccs2)cc1 (stereo unspecified) | > 100 µM | > 100 µM | > 100 µM | > 100 µM | > 100 µM | 45.1 µM | > 100 µM | > 100 µM | > 100 µM | > 100 µM
4 | C(=C\c1cc[n+](CCc2ccccc2)cc1)/c1ccccc1 | > 100 µM | 50.9 µM | > 100 µM | 17.5 µM | > 100 µM | 29.1 µM | 18.9 µM | 51.8 µM | 53.2 µM | 26.8 µM
5 | N#CC1=C(S)N(C2OC(CO)C(O)C(O)C2O)C(c2ccccc2)=CC1c1ccco1 (stereo unspecified) | > 100 µM | > 100 µM | > 100 µM | > 100 µM | 45.1 µM | > 100 µM | 53.5 µM | > 100 µM | > 100 µM | > 100 µM
6 | O=C1/C(=C/c2ccc(Br)s2)NC(=S)N1CN1CCCCC1 | 76.3 µM | > 100 µM | 88.3 µM | > 100 µM | > 100 µM | > 100 µM | > 100 µM | – | 50.8 µM | > 100 µM
7 | O=C(c1c(F)c(F)c(F)c(F)c1F)n1c(=S)n(C(=O)c2c(F)c(F)c(F)c(F)c2F)c2ccccc21 | > 100 µM | > 100 µM | > 100 µM | > 100 µM | > 100 µM | > 100 µM | > 100 µM | – | > 100 µM | > 100 µM
8 | Cc1cc(C=O)c2c(=O)c3c(O)ccc(/C=C/C(C)C)c3oc2c1 | > 100 µM | > 100 µM | – | > 100 µM | > 100 µM | – | > 100 µM | > 100 µM | 58.8 µM | > 100 µM
9 | CC(C)(C)n1c(=O)n2c(-c3ccccc3)c(-c3ccccc3)n2c1=O | > 100 µM | > 100 µM | > 100 µM | > 100 µM | > 100 µM | > 100 µM | > 100 µM | > 100 µM | 61.1 µM | > 100 µM
10 | COC(=O)N/N=c1\cc(C(=O)Nc2ccc(C)c(C)c2)oc2cc(O)ccc12 | > 100 µM | > 100 µM | – | > 100 µM | > 100 µM | – | > 100 µM | > 100 µM | – | > 100 µM
11 | Nc1nccc(NCC2(CO)CC(CCc3ccccc3)C2)n1 (stereo unspecified) | 32.3 µM | – | 31.9 µM | 37.9 µM | 40.5 µM | 48.9 µM | 28.7 µM | 39.7 µM | 51 µM | 36.5 µM
12 | COC(=O)C1=C(OC)C(=P2(c3ccccc3)CC(c3ccccc3)=C2c2ccccc2)C(C(=O)OC)=C1C(=O)OC (stereo unspecified) | > 100 µM | > 100 µM | > 100 µM | > 100 µM | > 100 µM | > 100 µM | > 100 µM | > 100 µM | > 31.2 µM | > 100 µM
13 | CN(Cc1cccc2ccsc12)/N=C\c1ccc(Cl)cc1 | > 100 µM | > 100 µM | > 100 µM | 95.4 µM | > 100 µM | > 100 µM | > 100 µM | > 100 µM | – | > 100 µM
14 | Cc1nc2ccc(N=Nc3c(C)noc3C)cc2[nH]1 | > 100 µM | > 100 µM | > 100 µM | > 100 µM | 32.9 µM | 96.6 µM | > 100 µM | > 100 µM | 92.4 µM | > 100 µM
15 | CCOc1ccc(OP2(=O)NC(=O)C=C(C)N2)cc1 (stereo unspecified) | > 100 µM | > 100 µM | – | > 100 µM | > 100 µM | – | > 100 µM | > 100 µM | > 100 µM | > 100 µM
16 | CCN(CC)c1ccc(Cl)c2c1C(O)(C(C)C)C2(C)C (stereo unspecified) | 32 µM | 28.7 µM | – | 27.6 µM | 32 µM | – | 30.5 µM | 35.1 µM | 31.2 µM | 37.1 µM
17 | CC(=O)Nc1ccc2c(c1)C(=O)c1ccccc1-2 | > 100 µM | > 100 µM | – | > 100 µM | > 100 µM | – | > 100 µM | > 100 µM | > 100 µM | > 100 µM
18 | CCCCCCCCCCCCCCCCOP(=O)([O-])OCC[N+](C)(C)C1CC(C)(C)N(O)C(C)(C)C1 | > 100 µM | > 100 µM | > 100 µM | > 100 µM | > 100 µM | > 100 µM | > 100 µM | > 100 µM | – | –
19 | COc1ccc(OC)c(/C=C2/C(=O)N=C(NC(C)=O)N2C)c1 | > 100 µM | > 100 µM | > 100 µM | > 100 µM | > 100 µM | > 100 µM | > 100 µM | > 100 µM | – | > 100 µM
20 | O[C@@H]1[C@H](OC2c3ccccc3-c3ccccc32)[C@H](OCc2ccccc2)[C@@H]2OC[C@H]1O2 | > 100 µM | > 100 µM | > 100 µM | > 100 µM | – | > 100 µM | > 100 µM | > 100 µM | > 100 µM | > 100 µM
21 | N#CCC(=O)N/N=C\C(O)C(O)C(O)C(O)CO (stereo unspecified) | > 100 µM | > 100 µM | > 100 µM | > 100 µM | > 100 µM | > 100 µM | – | > 100 µM | > 100 µM | > 100 µM
22 | NC1=C(c2nc(-c3ccccc3)cs2)C(c2ccco2)c2c(c3ccccc3oc2=O)O1 (stereo unspecified) | > 100 µM | > 100 µM | > 100 µM | > 100 µM | > 100 µM | > 100 µM | > 100 µM | > 100 µM | – | > 100 µM
23 | CO/C(N)=C(\C#N)N=Cc1ccsc1 | > 100 µM | > 100 µM | > 100 µM | > 100 µM | > 100 µM | > 100 µM | > 100 µM | > 100 µM | – | > 100 µM
